Source: patent US20240092741A1, “COMPOSITION FOR PREVENTION OR TREATMENT OF NEUROFIBROMATOSIS TYPE 2 SYNDROME” (PRG S&TECH INC., priority 2021, published 2024)

Tests used:
HEI-193 cells [1] = assay: Morphological change / differentiation of HEI-193 cells; type: cell-based, human; settings: 7 days (FIGS. 12C, 13B)
SOX2 = SOX2 localization by IF and cell fractionation in HEI-193 cells; type: cell-based, human; settings: 2 μM, 24 h, IF and cell fractionation (FIGS. 15C, 15D)
Protocol: (§1) Cells were seeded on cover glass, washed with PBS, fixed with 4% paraformaldehyde (PFA) for 30 minutes at room temperature, and then permeabilized with 0.2% Triton X-100 at room temperature for 5 minutes. After treatment with blocking buffer [3% goat serum diluted in PBS] for 1 hour, cells were reacted with the specified antibody in the blocking buffer overnight at 4° C. Finally, the cells were reacted with secondary antibodies conjugated with FITC or rhodamine at 4° C. for 7 hours. The nuclei were stained with DAPI at room temperature for 10 minutes. After the cells were washed 3 times with PBS, the cover glass was mounted with a mounting solution (H-5501, Vector Laboratories, Cambridgeshire, UK) and immunofluorescence signals were detected using a fluorescence microscopy (Zeiss, Jena, Germany).

normal fibroblasts = assay: MTT cell viability assay in normal fibroblasts; type: cell-based, human; settings: indicated concentrations, 7 days (FIG. 5A)
Protocol: To measure cell viability, MTT (3-(4,5-dimethylthiazol-2-yl)-2,5-diphenyltetrazolium bromide) assay was used. In other words, the cells were seeded in 96-well plates and treated with the indicated chemicals for a predetermined time. After removing the medium, 200 μl of MTT solution (0.5 mg/ml) dissolved in PBS was added to each well. Plates were then cultured at 37° C. for 4 hours, the MTT solution was removed, the precipitated substances were dissolved using a solution (DMSO:ethanol=1:1), and an amount of formazan dye produced was quantified by measuring the absorbance at 560 nm using an ELISA microplate reader (Thermo Fisher Scientific, MA, USA).

[2] = molecular target: T1, interaction between TβR1 and RKIP (Homo sapiens, UniProt P30086+P36897); assay: Immunoprecipitation of TβR1-RKIP interaction in transfected HEI-193 cells; type: cell-based; settings: FLAG-TβR1- or HA-RKIP-transfected HEI-193 cells, indicated concentrations, 6 h (FIGS. 8A, 9A)
T1 construct: host or cells: HEI-193
T1 sequence (P36897 34-503): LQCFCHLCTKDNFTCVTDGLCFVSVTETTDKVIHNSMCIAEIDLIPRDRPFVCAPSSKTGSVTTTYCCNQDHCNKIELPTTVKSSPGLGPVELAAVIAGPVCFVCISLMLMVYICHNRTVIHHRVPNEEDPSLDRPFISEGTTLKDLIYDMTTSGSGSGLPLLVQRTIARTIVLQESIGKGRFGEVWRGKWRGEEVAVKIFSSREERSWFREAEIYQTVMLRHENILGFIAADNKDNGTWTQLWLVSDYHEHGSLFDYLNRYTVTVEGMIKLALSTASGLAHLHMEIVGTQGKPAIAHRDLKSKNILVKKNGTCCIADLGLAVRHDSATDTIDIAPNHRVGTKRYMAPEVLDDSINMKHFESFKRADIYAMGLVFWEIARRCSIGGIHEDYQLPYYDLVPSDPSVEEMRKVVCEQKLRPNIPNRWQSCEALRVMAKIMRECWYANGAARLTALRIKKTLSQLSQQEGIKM
T1 sequence (P30086 2-187 limits assumed): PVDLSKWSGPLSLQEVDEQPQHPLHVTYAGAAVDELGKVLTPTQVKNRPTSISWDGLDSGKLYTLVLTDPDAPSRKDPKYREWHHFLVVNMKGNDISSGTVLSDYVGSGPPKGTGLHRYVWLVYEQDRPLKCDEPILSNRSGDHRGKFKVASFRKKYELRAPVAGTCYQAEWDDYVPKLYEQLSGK
Protocol: For protein-protein interaction analysis, glutathione S-transferase (GST)-pull down assay was performed. For GST-pull down, agarose-bead-conjugated GST-RKIP recombinant protein was reacted with FLAG-tagged TβR1-transfected HEK 293 cell lysates in PBS buffer at 4° C. for 1 hour. Immunoprecipitation (IP) assay was performed by reacting with FLAG-tagged TβR1- or HA-tagged RKIP-transfected HEI-193 cell lysates in PBS buffer. Whole lysates were reacted with appropriate primary antibodies at 4° C. for 2 hours and with agarose-bead-conjugated protein A/G (Invitrogen, Carlsbad, CA, USA) for 2 hours. After centrifugation, the precipitates were washed twice with RIPA buffer and subjected to SDS-PAGE and western blotting analysis.

HEI-193 cells [3] = assay: FACS analysis and IF staining of schwann cell markers in HEI-193 cells; type: cell-based, human; settings: 7 days, compared with TEW7197 (FIG. 12F)
Protocol: as §1, with “Germany). In addition, for flow cytometry, cells were seeded in a 6-well plate and reacted with DMSO (control group), PRG-N-01 (5 μM), or TEW7197 (5 μM), respectively. After 4 days, the cells were fixed with 70% ethanol and labeled with propidium iodine. These samples were analyzed by FACS for cell-cycle analysis. […] A minimum of 10,000 cells were analyzed using an Attune NxT Flow cytometer (Thermo Fisher Scientific, Inc., Rockford, IL, USA).” for “Germany).”

HEI-193 cells [4] = assay: Western blotting of marker proteins in HEI-193 cells; type: cell-based, human; settings: HEI-193 cells
Protocol: Cells were harvested and lysed using RIPA buffer [50 mM Tris-Cl, pH 7.5, 150 mM NaCl, 1% NP-40, 0.1% SDS, and 10% sodium deoxycholate] to examine cellular signaling. Protein concentrations in samples were measured using Bio-Rad (Hercules, CA, USA) protein assay kits and BSA standards. The samples (20 μg protein per lane) were separated by sodium dodecyl sulfate-polyacrylamide gel electrophoresis (SDS-PAGE), transferred to Immobilon-P^SQ transfer membranes (Millipore Corp., MA, USA), which were then cultured with 3% skim milk-containing TBS-T buffer (Tris-HCl-based buffer containing 20 mM Tris pH 7.6, 150 mM NaCl, and 0.05% Tween 20) for 1 hour at room temperature and then reacted with primary antibody in TBS-T overnight at 4° C. The membranes were then washed and reacted with secondary horseradish peroxidase (HRP)-conjugated antibodies [goat anti-mouse, goat anti-rabbit, and mouse anti-goat antibodies (Pierce, Thermo Fisher Scientific, Inc., Rockford, IL, USA)] in TBS-T at room temperature for 2 hours. The blots were detected using an HRP-conjugated secondary antibody using ECL kit (Intron, Seoul, Korea).

With `CCN(CC)CCOc1ccc(-c2nnn(Cc3ccc(OC)cc3)c2N)cc1` [PRG-N-01, 4-(4-(2-(diethylamino)ethoxy)phenyl)-1-(4-methoxybenzyl)-1H-1,2,3-triazol-5-amino] the morphological changes (HEI-193 cells [1]) was “induced morphological changes”, the “localization of nuclear SOX2” value (SOX2) was “moved to the cytosol” and the “toxicity in normal fibroblasts (MTT)” value (normal fibroblasts) was “without causing toxicity”. For the same molecule, the “binding between TβR1 and RKIP (IP)” value [2] was “interrupted the binding in a dose-dependent manner”, the “schwann cell markers (FACS analysis)” value (HEI-193 cells [3]) was “clearly increased schwann cell markers compared to TEW7197” and the “expression of other stem cell factors (c-Myc, Nanog, Oct4)” value (HEI-193 cells [4]; 4 days, Western blot (FIG. 14A)) was “not altered”. For the same molecule, the “expression of SOX2 (stem cell marker) at the protein level” value (HEI-193 cells [4]; Western blot (FIG. 12E)) was “reduced”.
